# US9095617B2, “Surgical adjuvant composition and associated methods of use” (Soteria Industries, Inc., priority 2010, dated 2015)
# System: Bovine chondrocytes
# Assay: Viability of isolated chondrocytes suspended 12 hrs at 37° C. in various solutions (membrane integrity dyes)
# Type: cell-based
# Settings: bupivacaine 1.25 mg/mL [0.125%]
# Procedure: FIG. 7: Bovine chondrocytes suspended for 12 hrs. at 37° C. in various solutions of phosphate buffered saline (PBS), bupivacaine (1.25 mg/mL [0.125%]), arthroguard and saline. In these experiments, 2.5 mg/mL [0.25%] bupivacaine was combined with arthroguard to yield a final concentration of 1.25 mg/mL [0.125%] bupivacaine in arthroguard. for 12 hrs. Cell viability is assessed by membrane integrity dyes.
smiles,measurement,value
"CCCCN1CCCCC1C(=O)Nc1c(C)cccc1C (stereo not shown) [bupivicaine, bupivacaine]",amount of cell death of isolated chondrocytes exposed to bupivicaine,increases the amount of cell death
